Measurements from patent US9696323B2, “Biomarkers for chagas disease related cardiomyopathy” (THE BOARD OF REGENTS OF THE UNIVERSITY OF TEXAS SYSTEM, priority 2013, dated 2017).

System: T. cruzi
Assay: 2D-GE plasma proteome profile (differential protein expression) of T. cruzi-infected rats treated with PBN and/or BZ
Format: in vivo, rat
Conditions: plasma
From the text: Certain embodiments include biomarkers identified in a previous study. Parasite persistence and oxidative damage in the heart are known to be of pathological significance during Chagas disease (Zacks et al., (2005) An Acad Bras Cienc, 77, 695-715; Gupta et al., (2009) Interdiscip Perspect Infect Dis, 2009, 190354). […] In the previous study the inventors identified 92 proteins that were differentially expressed or oxidized in chagasic plasma. Functional analysis allocated a majority of these proteins to inflammation/immunity and lipid metabolism categories, and to molecular pathways associated with cardiovascular dysfunction, e.g., myocardial infarction, hypertrophy, and fibrosis, and pulmonary embolism and hypertension. Some proteins in chagasic rats treated with PBN and/or BZ were allocated to curative pathways (immune regulation and cardiac remodeling). The 2D-GE results were validated by Western blotting. […] Increased plasma levels of GSN, MYL2, and VIM were directly correlated with the severity of cardiac disease in human chagasic patients. […] These findings have utility in diagnosing disease severity and designing suitable therapy for management of human chagasic patients.
Ingenuity Pathway Analysis (IPA) is a highly curated and comprehensive software used for the integration of proteins into networks and pathways with biological meaning (Thomas and Bonchev, (2010). Hum Genomics, 4, 353-360). Network analysis of the plasma proteome profile of chagasic rats identified four major sub-networks linked to host response to T. cruzi infection and disease development (Table V). The maximal numbers of the differentially expressed plasma proteins (19 proteins) in chagasic rats were associated with antigen presentation and inflammatory response category (Table V) and indicators of persistent inflammation, known to be of pathological significance in Chagas disease (Dhiman et al., (2009) Clinical and Vaccine Immunology, 16, 660-666; Tanowitz et al., (2009) Prog Cardiovasc Dis, 51, 524-539; Junqueira et al., (2010) Expert Rev Mol Med, 12, e29). Following functional analysis of the inflammation-associated proteins, 12 proteins (APOA1, APOE, C3, CFB, CFH, FGB, GSN, KRT10, PLG, SCG2, SERPINA1, and SERPINC1) were identified as being involved in immune cell trafficking and cell movement of leukocytes, granulocytes, phagocytes, neutrophils, and dendritic and antigen presenting cells. Some of the differentially expressed proteins in inflammation category were associated with activation (APOE, C3, CFH, GC and PLG), chemotaxis (C3, SCG2, SERPINA1, SERPINC1), and infiltration of leukocytes (APOA1, APOE, C3, PLG, KRT10) and neutrophils (C3, CFB, CFH, PLG). Up regulation of APOE, APOA1, APOH, GC and PLG in chagasic plasma was indicative of activation, binding and accumulation of macrophages in the disease state. Of the 19 differentially expressed inflammation-associated proteins, 11 proteins (APOE, C3, CFB, CFH, GSN, KRT10, SCG2, SERPINA1, SERPINC1, GC, and PLG) were carbonylated in chagasic plasma. […] Other proteins (APOE, C3, KRT3, and SCG2) were exposed to oxidation due to T. cruzi-induced, acute oxidative stress, but were normalized in expression and oxidation during the chronic phase.
Seventeen of the differentially expressed proteins in chagasic plasma, i.e., AFM, C4BPA, CACNA1D, DLGAP2, GC, KNG1, MUG1, MYLPF, MY05A, MY05B, PRPH, PZP, RAI14, and SCG2, were allotted to the lipid metabolism/molecular transport/small molecule biochemistry category (Table V) and functionally linked by IPA network analysis to lipid, fatty acid, and carbohydrate metabolism. A majority of the proteins in this category, i.e., ALB, APOA1, APOA4, APOE, APOH, C3, GC, GNAQ, MY05A, PLG, SCD2, SERPINA1, SERPINC1 and VIM, were linked to the synthesis, metabolism, transport, and modification of lipids and fatty acids, and to uptake and release or efflux of lipids, eicosanoids, and cholesterol. […]

[1] = RCP/RCB/RCPB groups (chronic infection)

With `CC(C)(C)/[N+]([O-])=C/c1ccccc1` [PBN] the “Spot# 979 Average Normalized Density × 100,000” value (RAP group (acute infection)) was 59.46, the “Spot# 992 Average Normalized Density × 100,000” value (RAP group (acute infection)) was 34.51 and the “Spot# 12, 180 Average Normalized Density × 100,000” value [1] was 7.22. For the same molecule, the “Spot# 34 Average Normalized Density × 100,000” value [1] was 0.45, the “Spot# 37, 593 Average Normalized Density × 100,000” value [1] was 6.48 and the “Spot# 49, 673 Average Normalized Density × 100,000” value [1] was 13.39. The “Spot# 52, 54, 302 Average Normalized Density × 100,000” value [1] was 14.45, the “Spot# 53, 225 Average Normalized Density × 100,000” value [1] was 15.12 and the “Spot# 72 Average Normalized Density × 100,000” value [1] was 16.43. For the same molecule, the “Spot# 73, 705, 787 Average Normalized Density × 100,000” value [1] was 38.67, the “Spot# 77 Average Normalized Density × 100,000” value [1] was 8.675 and the “Spot# 88 Average Normalized Density × 100,000” value [1] was 40.49. For the same molecule, the “Spot# 94 Average Normalized Density × 100,000” value [1] was 2.55, the “Spot# 115, 123 Average Normalized Density × 100,000” value [1] was 10.96 and the “Spot# 149 Average Normalized Density × 100,000” value [1] was 4.39. For the same molecule, the “Spot# 153 Average Normalized Density × 100,000” value [1] was 10.34, the “Spot# 177 Average Normalized Density × 100,000” value [1] was 1.60 and the “Spot# 181 Average Normalized Density × 100,000” value [1] was 1.90. For the same molecule, the “Spot# 184, 257, 328 Average Normalized Density × 100,000” value [1] was 5.85, the “Spot# 207, 555 Average Normalized Density × 100,000” value [1] was 9.12 and the “Spot# 215 Average Normalized Density × 100,000” value [1] was 1.97. For the same molecule, the “Spot# 266 Average Normalized Density × 100,000” value [1] was 0.54, the “Spot# 299 Average Normalized Density × 100,000” value [1] was 1.17 and the “Spot# 315 Average Normalized Density × 100,000” value [1] was 8.23. For the same molecule, the “Spot# 334 Average Normalized Density × 100,000” value [1] was 0.71, the “Spot# 341 Average Normalized Density × 100,000” value [1] was 1.10 and the “Spot# 355, 359 Average Normalized Density × 100,000” value [1] was 2.20. For the same molecule, the “Spot# 382, 385, 378, 572, 578, 595 Average Normalized Density × 100,000” value [1] was 3.29, the “Spot# 389 Average Normalized Density × 100,000” value [1] was 4.32 and the “Spot# 430 Average Normalized Density × 100,000” value [1] was 8.21. For the same molecule, the “Spot# 434, 678 Average Normalized Density × 100,000” value [1] was 24.63, the “Spot# 439 Average Normalized Density × 100,000” value [1] was 14.99 and the “Spot# 452 Average Normalized Density × 100,000” value [1] was 10.01. The “Spot# 464 Average Normalized Density × 100,000” value [1] was 6.65, the “Spot# 479 Average Normalized Density × 100,000” value [1] was 32.56 and the “Spot# 493 Average Normalized Density × 100,000” value [1] was 13.46. For the same molecule, the “Spot# 515 Average Normalized Density × 100,000” value [1] was 7.78, the “Spot# 524 Average Normalized Density × 100,000” value [1] was 21.96 and the “Spot# 551, 587, 908 Average Normalized Density × 100,000” value [1] was 54.1. For the same molecule, the “Spot# 559 Average Normalized Density × 100,000” value [1] was 27.58, the “Spot# 571 Average Normalized Density × 100,000” value [1] was 38.63 and the “Spot# 576, 620 Average Normalized Density × 100,000” value [1] was 16.66. For the same molecule, the “Spot# 586, 614 Average Normalized Density × 100,000” value [1] was 38.00, the “Spot# 592 Average Normalized Density × 100,000” value [1] was 31.55 and the “Spot# 604 Average Normalized Density × 100,000” value [1] was 23.66. The “Spot# 606 Average Normalized Density × 100,000” value [1] was 5.58, the “Spot# 627 Average Normalized Density × 100,000” value [1] was 54.85 and the “Spot# 638 Average Normalized Density × 100,000” value [1] was 5.92. The “Spot# 649 Average Normalized Density × 100,000” value [1] was 37.11, the “Spot# 651 Average Normalized Density × 100,000” value [1] was 57.85 and the “Spot# 655 Average Normalized Density × 100,000” value [1] was 149.20. For the same molecule, the “Spot# 672 Average Normalized Density × 100,000” value [1] was 17.65, the “Spot# 676 Average Normalized Density × 100,000” value [1] was 42.59 and the “Spot# 691 Average Normalized Density × 100,000” value [1] was 16.29. For the same molecule, the “Spot# 715 Average Normalized Density × 100,000” value [1] was 32.20, the “Spot# 724 Average Normalized Density × 100,000” value [1] was 2.23 and the “Spot# 728 Average Normalized Density × 100,000” value [1] was 1.13. For the same molecule, the “Spot# 733 Average Normalized Density × 100,000” value [1] was 2.44, the “Spot# 740 Average Normalized Density × 100,000” value [1] was 7.33 and the “Spot# 745 Average Normalized Density × 100,000” value [1] was 3.21. For the same molecule, the “Spot# 749 Average Normalized Density × 100,000” value [1] was 1.70, the “Spot# 766 Average Normalized Density × 100,000” value [1] was 6.32 and the “Spot# 779, 909 Average Normalized Density × 100,000” value [1] was 6.88. For the same molecule, the “Spot# 796 Average Normalized Density × 100,000” value [1] was 8.33, the “Spot# 814 Average Normalized Density × 100,000” value [1] was 1.56 and the “Spot# 817 Average Normalized Density × 100,000” value [1] was 29.59. The “Spot# 820, 1081 Average Normalized Density × 100,000” value [1] was 2.20, the “Spot# 827 Average Normalized Density × 100,000” value [1] was 17.80 and the “Spot# 832 Average Normalized Density × 100,000” value [1] was 7.55. The “Spot# 860 Average Normalized Density × 100,000” value [1] was 5.79, the “Spot# 867 Average Normalized Density × 100,000” value [1] was 3.00 and the “Spot# 881 Average Normalized Density × 100,000” value [1] was 6.68. The “Spot# 897 Average Normalized Density × 100,000” value [1] was 31.94, the “Spot# 900 Average Normalized Density × 100,000” value [1] was 44.00 and the “Spot# 906 Average Normalized Density × 100,000” value [1] was 87.74. The “Spot# 966 Average Normalized Density × 100,000” value [1] was 59.29, the “Spot# 979 Average Normalized Density × 100,000” value [1] was 41.38 and the “Spot# 992 Average Normalized Density × 100,000” value [1] was 57.94.
